From patent US4808603A, “3,5-diacyl-2,6-dialkyl-4-aryl-1,4-dihydropyridines, their use, and pharmaceutical compositions thereof” (Ciba-Geigy Corporation, priority 1985, dated 1989)

Legend:
renally hypertonic rats = test: reduction in blood pressure in renally hypertonic rats; assay type: in vivo; details: 2 hours after p.o. administration of 15 mg/kg
Protocol: For example, 2 hours after p.o. administration of 15 mg/kg of 2,6-dimethyl-4-(3-nitrophenyl)-1,4-dihydropyridine-3,5dicarboxylic acid 3-methyl ester 5-[2-[N-(4-(4-fluorophenyl)-4-oxo-n-butyl)-N-methylamino]ethyl ester] to renally hypertonic rats, a reduction in blood pressure of approx. 45 mm Hg may be observed.

serotonin2 -receptors = biological target: T1, serotonin2 -receptors (Rattus norvegicus, UniProt P14842); test: displacement of 3H-ketanserin from its bonding sites in membranes of rats' brains; assay type: binding; details: read-out: IC50, displacement of 3H-ketanserin from serotonin2-receptor bonding sites
T1 construct: membranes of rats' brains; from tissue; host or cells: rat brain membranes
Source text: (§1) The compounds of the formula I and salts thereof have valuable pharmacological properties, especially in the cardiovascular field. […] 177, 21-30, (1965)] by way of the inhibition of potassium- and noradrenalininduced vasoconstriction, for example using 2,6-dimethyl-4-(3-nitrophenyl)-1,4-dihydropyridine-3,5-dicarboxylic acid 3-methyl ester 5-[2-[N-(4-(4-fluorophenyl)-4-oxo-n-butyl)-N-methylamino]ethyl ester] at a concentration of approx. 10^-8 mol/liter (IC50) for the inhibition of potassium-induced vasoconstriction, and at a concentration of approx. 3×10^-10 mol/liter (IC50) for the inhibition of noradrenalin-induced vasoconstriction. […] Pharmacol. 21, 301-304 (1982)], for example using 2,6-dimethyl-4-(3-nitrophenyl)-1,4-dihydropyridine-3,5-dicarboxylic acid 3-methyl ester 5-[2-[N-(4-(4-fluorophenyl)-4-oxo-n-butyl)-N-methylamino]ethyl ester] at a concentration of approx. 10^-8 mol/liter (IC50).

[1] = test system: isolated perfused mesenteric vessels of rats; test: inhibition of noradrenalin-induced vasoconstriction in isolated perfused mesenteric vessels of rats; assay type: cell-based; details: Rattus norvegicus, in vitro
Source text: as §1

[2] = test system: isolated perfused mesenteric vessels of rats; test: inhibition of potassium-induced vasoconstriction in isolated perfused mesenteric vessels of rats; assay type: cell-based; details: Rattus norvegicus, in vitro
Source text: as §1

T1 sequence (P14842 whole entry): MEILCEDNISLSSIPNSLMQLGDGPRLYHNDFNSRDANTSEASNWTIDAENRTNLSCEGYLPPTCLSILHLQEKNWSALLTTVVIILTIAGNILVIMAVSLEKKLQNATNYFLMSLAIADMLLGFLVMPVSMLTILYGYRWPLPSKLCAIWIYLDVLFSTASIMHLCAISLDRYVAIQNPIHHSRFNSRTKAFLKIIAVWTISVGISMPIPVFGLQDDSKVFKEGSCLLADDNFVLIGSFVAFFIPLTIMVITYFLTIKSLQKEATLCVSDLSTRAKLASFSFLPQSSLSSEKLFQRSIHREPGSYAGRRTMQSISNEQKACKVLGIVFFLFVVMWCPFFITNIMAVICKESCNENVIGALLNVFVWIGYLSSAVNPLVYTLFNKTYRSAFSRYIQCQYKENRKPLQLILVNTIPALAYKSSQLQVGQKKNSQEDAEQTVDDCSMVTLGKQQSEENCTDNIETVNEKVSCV

Compound: COC(=O)C1=C(C)NC(C)=C(C(=O)OCCN(C)CCCC(=O)c2ccc(F)cc2)C1c1cccc([N+](=O)[O-])c1 (stereo not shown) [2,6-dimethyl-4-(3-nitrophenyl)-1,4-dihydropyridine-3,5-dicarboxylic acid 3-methyl ester 5-[2-[N-(4-(4-fluorophenyl)-4-oxo-n-butyl)-N-methylamino]ethyl ester]]
- reduction in blood pressure (renally hypertonic rats): approx. 45 mm Hg
- IC50 (serotonin2 -receptors): ~10 nM
- IC50 [1]: ~0.3 nM
- IC50 [2]: ~10 nM
